Source: ChEMBL document CHEMBL5321262, “Antiviral Activity of Cannabidiolic Acid and Its Methyl Ester against SARS-CoV-2” (J Nat Prod, 2023)
Activity calls are given as the source filed them.

Columns and labels:
Format in all cases: functional, organism-based
Conditions in all cases: Severe acute respiratory syndrome coronavirus 2, time 73.0 hrs
[1] = system: SARS-CoV-2; assay: Antiviral activity against SARS-CoV-2 variant Omicron BA.2 infected in African green monkey Vero E6 cells assessed as reduction in virus-induced cytopathic effect preincubated with virus for 1 hr followed by infection with cells and measured after 72 hrs by microscopic analysis
[2] = system: SARS-CoV-2; assay: Antiviral activity against SARS-CoV-2 variant Omicron BA.4 infected African green monkey Vero E6 cells assessed as reduction in virus-induced cytopathic effect preincubated with virus for 1 hr followed by infection with cells and measured after 72 hrs by microscopic analysis
[3] = system: SARS-CoV-2; assay: Antiviral activity against SARS-CoV-2 variant Omicron BA.3 infected African green monkey Vero E6 cells assessed as reduction in virus-induced cytopathic effect preincubated with virus for 1 hr followed by infection with cells and measured after 72 hrs by microscopic analysis
[4] = system: SARS-CoV-2; assay: Antiviral activity against SARS-CoV-2 variant Omicron BA.1 infected in African green monkey Vero E6 cells assessed as reduction in virus-induced cytopathic effect preincubated with virus for 1 hr followed by infection with cells and measured after 72 hrs by microscopic analysis
[5] = system: SARS-CoV-2; assay: Antiviral activity against SARS-CoV-2 variant Omicron BA.5 infected African green monkey Vero E6 cells assessed as reduction in virus-induced cytopathic effect preincubated with virus for 1 hr followed by infection with cells and measured after 72 hrs by microscopic analysis
[6] = system: SARS-CoV-2; assay: Antiviral activity against SARS-CoV-2 variant Delta infected in African green monkey Vero E6 cells assessed as reduction in virus-induced cytopathic effect preincubated with virus for 1 hr followed by infection with cells and measured after 72 hrs by microscopic analysis

Measured: Activity

CCCCCc1cc(O)c(C/C=C(\C)CCC=C(C)C)c(O)c1C(=O)O [CANNABIGEROLIC ACID]
inactive: all assays above

C=C(C)[C@@H]1CCC(C)=C[C@H]1c1c(O)cc(CCCCC)cc1O [CANNABIDIOL]
inactive: all assays above

CCCCCc1cc(O)c(C/C=C(\C)CCC=C(C)C)c(O)c1 [CANNABIGEROL]
inactive: all assays above
